In patent US11498896B2 (The Broad Institute, Inc., priority 2014, dated 2022):
Read-outs that look alike come from different tables or passages of the source.

Experiments:
mice = experiment: Rotarod performance; type: in vivo; settings: 30 mg/kg IP in mice
Protocol: In the test, mice are placed on a horizontally oriented, rotating cylinder (rod) suspended above a cage floor, which is low enough not to injure the animal, but high enough to induce avoidance of fall. The mice naturally try to stay on the rotating cylinder, or rotarod, and avoid falling to the ground. Mice are administered clozaril at 3 mg/kg (test group); or a compound of Formula (I) (either 10 mg/kg or 30 mg/kg or vehicle). The mice have an average weight of 20 grams (as do the mice in all examples herein). The length of time that a given animal stays on this rotating rod is a measure of the animal's balance, coordination, physical condition, and motor-planning. The speed of the rotarod is mechanically driven, and is held constant.

Brain protein binding = type: in vitro ADME
human D2R/β-arrestin [1] = target: T1, human D2R/β-arrestin (Homo sapiens (Human), UniProt P14416); experiment: cell-based; settings: cAMP Antagonist, CHO-K1 cells expressing human D2R/β-arrestin; antagonist mode, 2.5 μM forskolin and 2.7 nM quinpirole
T1 sequence (P14416 whole entry): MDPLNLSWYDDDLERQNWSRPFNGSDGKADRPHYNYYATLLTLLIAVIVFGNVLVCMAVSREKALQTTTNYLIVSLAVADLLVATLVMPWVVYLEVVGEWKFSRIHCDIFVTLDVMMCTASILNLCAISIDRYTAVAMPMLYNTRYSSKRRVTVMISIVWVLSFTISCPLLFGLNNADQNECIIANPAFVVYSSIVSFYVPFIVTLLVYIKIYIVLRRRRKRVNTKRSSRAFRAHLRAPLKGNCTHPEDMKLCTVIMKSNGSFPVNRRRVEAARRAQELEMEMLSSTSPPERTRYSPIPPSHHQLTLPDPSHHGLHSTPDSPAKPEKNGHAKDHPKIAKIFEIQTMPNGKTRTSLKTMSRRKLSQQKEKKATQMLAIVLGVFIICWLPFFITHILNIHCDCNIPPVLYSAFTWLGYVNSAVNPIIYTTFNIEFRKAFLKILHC

[2] = Pharmacokinetic and brain distribution study in mice; type: in vivo; settings: single intraperitoneal dose 30 mg/kg, male C57BL/6 mice
Protocol: Pharmacokinetic Studies on Mice Brains
Twelve male C57BL/6 mice were weighed and administered intraperitoneally with a dose of test compound (Examples 90, 157, 125) solution formulation. The dosing volume administered for the intraperitoneal route was at 10 mL/kg. Blood samples (approximately […]) were collected from retro-orbital plexus of each mouse under light isoflurane anesthesia at 0.08, 0.5, 1, 2, 4, and 8 hr. Following the collection of blood, plasma was also harvested by centrifugation and stored at −70° C. until analysis. After collection of plasma, the animals were euthanized and brain samples were isolated at 0.08, 0.5, 1, 2, 4, and 8 hr. Tissue samples (brain) were homogenized using ice-cold phosphate buffer saline (pH 7.4) and homogenates were stored below −70° C. until analysis. Total homogenate volume was three times the tissue weight. Concentrations of test compound in mouse plasma and brain samples were determined by LC-MS/MS method.
Identical extraction procedures were used for the plasma/brain homogenate study samples and the spiked plasma calibration standards: A 25 μL sample of either study sample (plasma/brain) or spiked calibration standard was added to individual pre-labeled micro-centrifuge tubes. A volume of 100 μL of IS (antipyrine, 500 ng/mL) prepared in acetonitrile was then added to the micro-centrifuge tubes, except in a sample used as a negative control where only acetonitrile was added and vortexed for 5 minutes. Samples were centrifuged for 20 minutes at the speed of 4000 rpm at 4° C. Following centrifugation, 100 μL of the supernatant was sampled from each centrifuge tube and transferred into insert vials. These vials remained within the auto-sampler for the LC/MS/MS analysis. Standards used for calibration were prepared by spiking 10 μL of the test compound in 190 μL of control (used as a negative control) mouse plasma/brain homogenate.
The plasma and brain concentration-time data of test compounds was provided for data analysis. The plasma and brain concentration-time data was then used for the pharmacokinetic analysis. Non-Compartmental-Analysis module in Phoenix® WinNonlin® (Version 6.3) was used to assess the pharmacokinetic parameters. Peak plasma concentrations (Cmax) and time for the peak plasma concentrations (Tmax) were the observed values. The areas under the concentration time curve (AUClast and AUCinf) were calculated by linear trapezoidal rule. The terminal elimination rate constant, ke was determined by regression analysis of the linear terminal portion of the log plasma concentration-time curve.
Illustrative results are presented in FIG. 2, the pharmacokinetic parameters are as follow: […]

human D2R/β-arrestin [3] = target: T1, human D2R/β-arrestin; experiment: cell-based; settings: β-arrestin Antagonist, CHO-K1 cells expressing human D2R/β-arrestin; antagonist mode, quinpirole 130 nM
D2 receptor = D2 receptor (Homo sapiens (Human), UniProt P14416); experiment: D2 radioligand binding assay
Sequence of D2 receptor (P14416 whole entry): as above

[4] = system: D2R-mediated GSK3 signaling; experiment: D2R-mediated GSK3 signaling in HEK293T cells; type: cell-based; settings: HEK293T cells expressing both D2R and DISC1; 10 μM and 30 μM
Excerpt: Example 90 blocks β-arrestin signaling downstream of D2R and leads to modulation of GSK3 signaling.

fraction unbound (Brain protein binding): < 0.001 | IC50 (human D2R/β-arrestin [1]): > 30000 nM | Brain AUC ([2]; brain): 34.2 µM·h | Brain Cmax ([2]; brain): 7230 nM | half-life ([2]; mouse, ip, brain, read-out: Brain T1/2 (converted)): 4.2 h | AUC ([2]; mouse, ip, plasma): 4.4 µM·h | Cmax ([2]; mouse, ip, plasma): 1440 nM | half-life ([2]; mouse, ip, plasma, read-out: Plasma T1/2 (converted)): 4.7 h | IC50 (human D2R/β-arrestin [3]): 100 to 1000 nM | Ki (D2 receptor): 100 to 1000 nM
Compound: CC1(Oc2ccc(Cl)cc2)CCN(CCOc2ccccc2C(F)(F)F)CC1 [Compound 90, 4-(4-Chlorophenoxy)-4-methyl-1-(2-(2-(trifluoromethyl)phenoxy)ethyl) piperidine]
motoric side effects (rotarod performance) (mice): does not induce motoric side effects | block of D2R activation-induced reduction of GSK3-α/β (Ser 21/9) phosphorylation [4]: blocked
